The values below come from US11091488B2 (MISSION THERAPEUTICS LIMITED, priority 2015, dated 2021).

Structures are written as SMILES.

The IC50 is the concentration that inhibits the measured activity by half.

USP30, sequence (Q70CQ3 57-517): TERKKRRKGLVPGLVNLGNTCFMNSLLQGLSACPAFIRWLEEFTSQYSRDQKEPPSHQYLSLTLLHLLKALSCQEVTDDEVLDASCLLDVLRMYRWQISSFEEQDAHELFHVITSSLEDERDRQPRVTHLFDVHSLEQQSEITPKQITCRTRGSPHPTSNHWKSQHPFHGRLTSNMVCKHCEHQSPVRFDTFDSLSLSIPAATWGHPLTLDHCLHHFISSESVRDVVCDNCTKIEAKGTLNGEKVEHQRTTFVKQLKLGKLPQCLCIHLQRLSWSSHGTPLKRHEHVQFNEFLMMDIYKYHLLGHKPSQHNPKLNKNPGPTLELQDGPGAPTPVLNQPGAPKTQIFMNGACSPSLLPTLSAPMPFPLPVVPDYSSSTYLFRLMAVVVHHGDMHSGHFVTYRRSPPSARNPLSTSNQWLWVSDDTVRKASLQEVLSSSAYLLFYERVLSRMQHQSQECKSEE

This assay has as its target USP30 (Homo sapiens (Human), UniProt Q70CQ3). The experiment in a line: USP30 biochemical IC50 assay. The note with it: read-out: IC50 range; fluorescence polarisation, TAMRA labelled peptide linked to ubiquitin; 30 min pre-incubation, read after 2 hr.
Procedure: USP30 Biochemical IC50 Assay
Dilution plates were prepared at 21 times the final concentration (2100 μM for a final concentration of 100 μM) in 50% DMSO in a 96-well polypropylene V-bottom plate (Greiner #651201). A typical 8-point dilution series to be 100, 30, 10, 3, 1, 0.3, 0.1, 0.03 μM final. Reactions were performed in duplicate in black 384 well plates (small volume, Greiner 784076) in a final reaction volume of 21 μl. Either 1 μl of 50% DMSO or diluted compound was added to the plate. USP30 was diluted in reaction buffer (40 mM Tris, pH 7.5, 0.005% Tween 20, 0.5 mg/ml BSA, 5 mM—beta-mercaptoethanol) to the equivalent of 0.05 μl/well and 10 μl of diluted USP30 was added to the compound. Enzyme and compound were incubated for 30 min at room temp. Reactions were initiated by the addition of 50 nM of TAMRA labelled peptide linked to ubiquitin via an iso-peptide bond as fluorescence polarisation substrate. Reactions were read immediately after addition of substrate and following a 2 hr incubation at room temperature. Readings were performed on a Pherastar Plus (BMG Labtech). λ Excitation 540 nm; λ Emission 590 nm.
As to `N#CN1CC[C@H](N2CCN(c3cccc(-c4ccno4)c3)S2(=O)=O)C1` [Example 1, (S)-3-(5-(3-(isoxazol-5-yl)phenyl)-1,1-dioxido-1,2,5-thiadiazolidin-2-yl)pyrrolidine-1-carbonitrile], the IC50 was in the range of 100 to 1000 nM.
With `CN1C(=O)COc2cc(N3CCN([C@@H]4CCN(C#N)C4)S3(=O)=O)ccc21` [Example 2, (R)-3-(5-(4-methyl-3-oxo-3,4-dihydro-2H-benzo[b][1,4]oxazin-7-yl)-1,1-dioxido-1,2,5-thiadiazolidin-2-yl)pyrrolidine-1-carbonitrile], the IC50 was under 100 nM.
With `N#CN1CC[C@@H](N2CCN(c3ccc4c(c3)OCC(=O)N4)S2(=O)=O)C1` [Example 3, (R)-3-(1,1-dioxido-5-(3-oxo-3,4-dihydro-2H-benzo[b][1,4]oxazin-7-yl)-1,2,5-thiadiazolidin-2-yl)pyrrolidine-1-carbonitrile], the IC50 was 100 to 1000 nM.
For `N#CN1CC[C@@H](N2CCN(c3ccc4c(c3)NC(=O)CO4)S2(=O)=O)C1` [Example 5, (R)-3-(1,1-dioxido-5-(3-oxo-3,4-dihydro-2H-benzo[b][1,4]oxazin-6-yl)-1,2,5-thiadiazolidin-2-yl)pyrrolidine-1-carbonitrile], the IC50 is under 100 nM.
With `N#CN1CC[C@@H](N2CCN(c3ccc4c(c3)N(CCO)C(=O)CO4)S2(=O)=O)C1` [Example 6, (R)-3-(5-(4-(2-hydroxyethyl)-3-oxo-3,4-dihydro-2H-benzo[b][1,4]oxazin-6-yl)-1,1-dioxido-1,2,5-thiadiazolidin-2-yl)pyrrolidine-1-carbonitrile] the figure was 100 to 1000 nM; with `COc1ccc(N2CCN([C@@H]3CCN(C#N)C3)S2(=O)=O)cc1N1CCOCC1` [Example 8, (R)-3-(5-(4-methoxy-3-morpholinophenyl)-1,1-dioxido-1,2,5-thiadiazolidin-2-yl)pyrrolidine-1-carbonitrile], 100 to 1000 nM; with `N#CN1CC[C@@H](N2CCN(C3CCN(c4ccccn4)C3)S2(=O)=O)C1` (stereo partly drawn) [Example 9, (3R)-3-(1,1-dioxido-5-(1-(pyridin-2-yl)pyrrolidin-3-yl)-1,2,5-thiadiazolidin-2-yl)pyrrolidine-1-carbonitrile], 100 to 1000 nM.
Under `COc1ccccc1-c1cccc(N2CCN([C@@H]3CCN(C#N)C3)S2(=O)=O)c1` [Example 10, (R)-3-(5-(2′-methoxy-[1,1′-biphenyl]-3-yl)-1,1-dioxido-1,2,5-thiadiazolidin-2-yl)pyrrolidine-1-carbonitrile] stands under 100 nM; under `N#CN1CC[C@@H](N2CCN(c3ccc(-c4ccccc4)cc3)S2(=O)=O)C1` [Example 11, (R)-3-(5-([1,1′-biphenyl]-4-yl)-1,1-dioxido-1,2,5-thiadiazolidin-2-yl)pyrrolidine-1-carbonitrile], under 100 nM.
With `N#CN1CC[C@@H](N2CCCN(c3ccc(-c4ccccc4)cc3)S2(=O)=O)C1` [Example 12, (R)-3-(6-([1,1′-biphenyl]-4-yl)-1,1-dioxido-1,2,6-thiadiazinan-2-yl)pyrrolidine-1-carbonitrile], the IC50 is 100 to 1000 nM.
For the molecule `N#CN1CC[C@@H](N2CCN(c3cccc(-c4ccccc4)c3)S2(=O)=O)C1` [Example 13, (R)-3-(5-([1,1′-biphenyl]-3-yl)-1,1-dioxido-1,2,5-thiadiazolidin-2-yl)pyrrolidine-1-carbonitrile], the IC50 was under 100 nM.
With `N#CN1CC[C@@H](N2CCCN(c3cccc(-c4ccccc4)c3)S2(=O)=O)C1` [Example 14, (R)-3-(6-([1,1′-biphenyl]-3-yl)-1,1-dioxido-1,2,6-thiadiazinan-2-yl)pyrrolidine-1-carbonitrile] the figure was 100 to 1000 nM; with `COc1ccc(-c2ccccc2)cc1N1CCN([C@@H]2CCN(C#N)C2)S1(=O)=O` [Example 15, (R)-3-(5-(4-methoxy-[1,1′-biphenyl]-3-yl)-1,1-dioxido-1,2,5-thiadiazolidin-2-yl)pyrrolidine-1-corbonitrile], under 100 nM; with `COc1cccc(-c2cccc(N3CCN([C@@H]4CCN(C#N)C4)S3(=O)=O)c2)c1` [Example 16, (R)-3-(5-(3′-methoxy-[1,1′-biphenyl]-3-yl)-1,1-dioxido-1,2,5-thiadiazolidin-2-yl)pyrrolidine-1-carbonitrile], under 100 nM.
Take `COc1ccccc1-c1ccc(N2CCN([C@@H]3CCN(C#N)C3)S2(=O)=O)cc1` [Example 17, (R)-3-(5-(2′-methoxy-[1,1′-biphenyl]-4-yl)-1,1-dioxido-1,2,5-thiadiazolidin-2-yl)pyrrolidine-l-carbonitrile]: the IC50 is under 100 nM.
As for `N#CN1CC[C@@H](N2CCN(c3ccc(-c4ccncc4)cc3)S2(=O)=O)C1` [Example 18, (R)-3-(1,1-dioxido-5-(4-(pyridin-4-yl)phenyl)-1,2,5-thiadiazolidin-2-yl)pyrrolidine-1-carbonitrile], the IC50 was under 100 nM.
`N#CN1CC[C@@H](N2CCN(c3cccc(-c4ccncc4)c3)S2(=O)=O)C1` [Example 19, (R)-3-(1,1-dioxido-5-(3-(pyridin-4-yl)phenyl)-1,2,5-thiadiazolidin-2-yl)pyrrolidine-1-carbonitrile]: the half-maximal inhibitory concentration (IC50) is under 100 nM.
On to `Cn1cc(-c2cccc(N3CCN([C@@H]4CCN(C#N)C4)S3(=O)=O)c2)cn1` [Example 20, (R)-3-(5-(3-(1-methyl-1H-pyrazol-4-yl)phenyl)-1,1-dioxido-1,2,5-thiadiazolidin-2-yl)pyrrolidine-1-corbonitrile], for which the IC50 was under 100 nM.
In the case of `Cn1cc(-c2cccc(N3CCCN([C@@H]4CCN(C#N)C4)S3(=O)=O)c2)cn1` [Example 21, (R)-3-(6-(3-(1-methyl-1H-pyrazol-4-yl)phenyl)-1,1-dioxido-1,2,6-thiadiazinan-2-yl)pyrrolidine-1-carbonitrile], the IC50 fell in the range of 100 to 1000 nM.
With `N#CN1CC[C@@H](N2CCN(c3ccc(N4CCOCC4)cc3)S2(=O)=O)C1` [Example 22, (R)-3-(5-(4-morpholinophenyl)-1,1-dioxido-1,2,5-thiadiazolidin-2-yl)pyrrolidine-1-carbonitrile], the half-inhibitory concentration (IC50) was in the range of 100 to 1000 nM.
For `N#CN1CC[C@@H](N2CCN(c3cccc(N4CCOCC4)c3)S2(=O)=O)C1` [Example 24, (R)-3-(5-(3-morpholinophenyl)-1,1-dioxido-1,2,5-thiadiazolidin-2-yl)pyrrolidine-1-carbonitrile], the IC50 was under 100 nM.
With `N#CN1CC[C@@H](N2CCCN(c3cccc(N4CCOCC4)c3)S2(=O)=O)C1` [Example 25, (R)-3-(6-(3-morpholinophenyl)-1,1-dioxido-1,2,6-thiadiazinan-2-yl)pyrrolidine-1-carbonitrile], the IC50 was in the range of 1000 to 10000 nM.
In the case of `N#CN1CC[C@@H](N2CCN(c3cc(-c4ccccc4)no3)S2(=O)=O)C1` [Example 26, (R)-3-(1,1-dioxido-5-(3-phenylisoxazol-5-yl)-1,2,5-thiadiazolidin-2-yl)pyrrolidine-1-carbonitrile], the IC50 is under 100 nM.
For `N#CN1CC[C@@H](N2CCCN(c3cc(-c4ccccc4)no3)S2(=O)=O)C1` [Example 27, (R)-3-(1,1-dioxido-6-(3-phenylisoxazol-5-yl)-1,2,6-thiadiazinan-2-yl)pyrrolidine-1-carbonitrile], the concentration for half-maximal inhibition (IC50) was in the range of 100 to 1000 nM.
With `N#CN1CC[C@@H](N2CCN(c3cc(-c4ccccc4)n[nH]3)S2(=O)=O)C1` [Example 28, (R)-3-(1,1-dioxido-5-(3-phenyl-1H-pyrazol-5-yl)-1,2,5-thiadiazolidin-2-yl)pyrrolidine-1-carbonitrile] the figure was under 100 nM.
As to `N#CN1CC[C@@H](N2CCCN(c3cc(-c4ccccc4)n[nH]3)S2(=O)=O)C1` [Example 29, (R)-3-(1,1-dioxido-6-(3-phenyl-1H-pyrazol-5-yl)-l,2,6-thiadiazinan-2-yl)pyrrolidine-1-carbonitrile], the IC50 is 100 to 1000 nM.
For the molecule `N#CN1CC[C@@H](NS(=O)(=O)N2CCCn3nc(-c4ccccc4)cc32)C1` [Example 30, (R)—N-(1-cyanopyrrolidin-3-yl)-2-phenyl-6,7-dihydropyrazolo[1,5-a]pyrimidine-4(5H)-sulfonamide], the IC50 fell in the range of 100 to 1000 nM.
For the molecule `N#CN1CC[C@H](N2CCN(c3ccccc3)S2(=O)=O)C1` [Example 31, (S)-3-(1,1-dioxido-5-phenyl-1,2,5-thiadiazolidin-2-yl)pyrrolidine-1-carbonitrile], the IC50 fell in the range of 1000 to 10000 nM.
Under `N#CN1CC[C@H](N2CCN(c3ccc(-c4ccncc4)cc3)S2(=O)=O)C1` [Example 32, (S)-3-(1,1-dioxido-5-(4-(pyridin-4-yl)phenyl)-1,2,5-thiadiazolidin-2-yl)pyrrolidine-1-carbonitrile] stands under 100 nM.
On to `N#CN1CC[C@H](N2CCN(c3cccc(-c4ccncc4)c3)S2(=O)=O)C1` [Example 33, (S)-3-(1,1-dioxido-5-(3-(pyridin-4-yl)phenyl)-1,2,5-thiadiazolidin-2-yl)pyrrolidine-l-carbonitrile], for which the IC50 is under 100 nM.
For `N#CN1CC[C@H](N2CCN(c3ccc(-c4ccccc4)cc3)S2(=O)=O)C1` [Example 34], the IC50 was under 100 nM.
With `N#CN1CC[C@H](N2CCN(c3cccc(-c4ccccc4)c3)S2(=O)=O)C1` [Example 35, (S)-3-(5-([1,1′-biphenyl]-3-yl)-l,1-dioxido-1,2,5-thiadiozolidin-2-yl)pyrrolidine-1-carbonitrile], the IC50 is under 100 nM.
With `N#CN1CC[C@H](N2CCN(c3cccc(-c4ccccc4)n3)S2(=O)=O)C1` [Example 36, (S)-3-(1,1-dioxido-5-(6-phenylpyridin-2-yl)-1,2,5-thiadiazolidin-2-yl)pyrrolidine-1-carbonitrile] the figure was under 100 nM; with `N#CN1CCC(N2CCN(c3ccccc3)S2(=O)=O)C1` (stereo not drawn) [Example 37, 3-(1,1-dioxido-5-phenyl-1,2,5-thiadiazolidin-2-yl)pyrrolidine-1-carbonitrile], 100 to 1000 nM; with `N#CN1CCC(N2CCCN(c3ccccc3)S2(=O)=O)C1` (stereo not drawn) [Example 38, 3-(1,1-dioxido-6-phenyl-1,2,6-thiadiazinan-2-yl)pyrrolidine-1-carbonitrile], 100 to 1000 nM.
Take `C[C@H]1CN(C#N)C[C@@H]1N1CCN(c2ccc(-c3ccccc3)cc2)S1(=O)=O` [Example 39, (3R,4S)-3-(5-([1,1′-biphenyl]-4-yl)-1,1-dioxido-1,2,5-thiadiazolidin-2-yl)-4-methylpyrrolidine-1-carbonitrile]: the IC50 is under 100 nM.
